Laboratory results published in publication PMC4473678, “Swedish mutant APP-based BACE1 binding site peptide reduces APP β-cleavage and cerebral Aβ levels in Alzheimer’s mice” (Scientific Reports, 2015).
Entries after “also recorded” stand apart in the source; their conditions may differ.

Legend:
[1] = test system: recombinant BACE1 protein; experiment: WB of BACE1-mediated cleavage of biotin-labeled peptide, cell-free; format: biochemical; conditions: 10 μg biotin-labeled TAT-APPsweBBP with 10 μL recombinant BACE1 (1.0 U/mL), 4 h, 37 °C
Procedure: In order to confirm that APPsweBBP containing the β-cleavage site could bind to and be consequently proteolyzed by BACE1, 10 μg of biotin-labeled TAT-APPsweBBP was incubated with or without 10 μL of recombinant BACE1 protein (1.0 U/mL) in BACE1 reaction buffer for 4 h at 37 °C and then subjected to WB analysis as described previously. In addition, we performed immunoprecipitation (IP) and WB analyses of this mixture with anti-BACE1 and anti-biotin antibodies to confirm that TAT-APPsweBBP, but not TAT, specifically binds to BACE1.

[2] = test system: BACE1 in CHO/APPwt cells; experiment: Co-localization with BACE1 in CHO/APPwt cells (immunocytochemistry); format: cell-based, Chinese hamster; conditions: biotin-labeled peptide 20 μM, 30 min, anti-BACE1 and anti-biotin staining
Procedure: (§1) Following application of blocking buffer, these cells were stained with mouse anti-BACE1 and anti-biotin antibodies overnight at 4 °C for immunocytochemical analysis. In order to determine the inhibitory effects of TAT-APPsweBBP on BACE1-mediated APP β-cleavage and subsequent Aβ production, both CHO/APPwt and CHO/APPswe cells were plated in 24 well-plates (3×10^5/well) and treated with TAT-APPsweBBP at 0 to 20 μM for 24 h. The cultured media were collected for Aβ and sAPPα analysis by ELISA and WB. Cell lysates were also prepared for analysis of APP amyloidogenic processing by WB.

[3] = test system: BACE1 in CHO/APPwt cells; experiment: IP/WB of BACE1 binding in CHO/APPwt cell lysates; design: species or system Chinese hamster; conditions: biotin-labeled peptide 20 μM, 30 min, anti-biotin IP, listed as TAT-APPsweBBP
[4] = test system: CHO/APPwt cells; experiment: APP processing in CHO/APPwt cells (WB, ELISA); format: cell-based, Chinese hamster; conditions: 0 to 20 μM, 24 h
Procedure: Chinese hamster ovary (CHO) cells engineered to express human APPwt (CHO/APPwt cells) or human APPswe (CHO/APPswe cells) were kindly provided by Dr. Stefanie Hahn and Dr. Sascha Weggen (University of Heinrich Heine, Dusseldorf, Germany). As described in our recent report, these cells were cultured in Dulbecco’s modified Eagle’s medium with 10% fetal bovine serum, 1 mM sodium pyruvate and 100 U/mL of penicillin/streptomycin.
as §1
WB analysis was performed as previously described. Briefly, the proteins from the various cell-free suspensions, cell lysates and brain homogenates were electrophoretically separated using 10% bicine/tris gel (8 M urea) for proteins less than 5 kD or 10% tricine/tris gels for larger proteins. Electrophoresed proteins were transferred to polyvinylidene difluoride membranes (Bio-Rad, Richmond, CA), washed and blocked for 2 h at room temperature in Tris-buffered saline containing 5% (w/v) nonfat dry milk (TBS/NFDM). After blocking, membranes were hybridized for 2 h with various primary antibodies, washed and incubated for 1 h with the appropriate HRP-conjugated secondary antibody in TBS/NFDM. Blots were developed using the luminol reagent (Thermo Fisher Scientific, Waltham, MA).
Mouse brains were homogenized in ice-cold lysis buffer for 30 s using a Minilys tissue homogenizer (Bertin Technologies, Montigny-le-Bretonneux, France) set at high speed, allowed to stand for 15 min at 4 °C, and centrifuged at 15000 rpm for 30 min. Soluble Aβ1−40/42 species and sAPPα were directly detected in cultured cell media or brain homogenates using the Aβ1−40/42 (Invitrogen) and sAPPα ELISA kits (IBL-America, Minneapolis, MN). Detergent-insoluble total […] species were detected in brain by extracting pellets in 5 M guanidine HCl buffer, followed by a 1:20 dilution in lysis buffer.

[5] = test system: 5XFAD mice; experiment: Radial arm water maze (RAWM), 5XFAD mice; format: in vivo, mouse; conditions: 100 nmol/kg i.p. daily, 8 weeks, n = 10 per treatment, 5 female/5 male, listed as TAT-APPsweBBP
Procedure: Transgenic AD mice [5XFAD; B6SJL-Tg(APPSwFlLon,PSEN1*M146L*L286V) 6799Vas/Mmjax] at 2.5 months of age were obtained from the Jackson Laboratory (Bar Harbor, ME) and housed and maintained in the Animal Facility of College of Medicine at University of South Florida (USF). The mice at 3.5 months of age were treated with TAT-APPsweBBP, TAT peptide (100 nmol/kg in 100 μL PBS) or PBS (100 μL) daily by intraperitioneal injection (i.p.) for eight consecutive weeks. The mice were subjected to behavioral testing after 8-week treatment and then euthanized for immunohistochemical, WB and ELISA analyses. Animals were housed and maintained at USF and all experiments were in compliance with protocols approved by USF Institutional Animal Care and Use Committee. All methods were performed in accordance with relevant guidelines and regulations.
Spatial learning and memory performance was tested for each mouse using the Two-day Radial Arm Water Maze (RAWM) test[49]. The RAWM was carried out in a 100-cm circular pool with six swim alleys radiating from a common circular swim area. An escape platform was placed near the end of one arm, which forces mice to use working memory to perform this task. On day 1, mice are trained for 15 trials (5 blocks, 3 trials per block), with trials alternating between visible and hidden platform. […] Cognitive ability was assessed as the number of entry-arm errors.

[6] = test system: WT mice; experiment: Radial arm water maze (RAWM), WT mice; format: in vivo, mouse; conditions: 100 nmol/kg i.p. daily, 8 weeks, n = 10 per treatment, listed as TAT-APPsweBBP
[7] = *P < 0.05, **P < 0.01, three independent experiments, each triplicated

YGRKKRRQRRREISEVNLDAEFR [APPsweBBP conjugated with the membrane fusion fragment of HIV-1 Tat protein]
cleavage by BACE1 [1]: is cleaved by BACE1; also recorded: can also be cleaved
co-localization with BACE1 ([2]; listed as TAT-APPsweBBP): much more strongly co-localized with BACE1 protein compared to APPsweBBP
co-localization with BACE1 ([2]; listed as TAT-APPsweBPP): strong association with BACE1 in both cytoplasmic membrane and intracellular compartments
binding to BACE1 in cell lysates [3]: strongly and specifically binds to BACE1; also recorded: markedly bound to BACE1 compared to APPsweBBP
holo APP expression by WB [4]: leaving holo APP expression unaltered
sAPPα by WB [4]: promoting
Aβ1−40/42 by ELISA [4, 7]: significantly decreased
sAPPα by ELISA [4, 7]: increased sAPPα levels in a dose-dependent manner
Aβ by WB ([4]; listed as TAT-APPsweBBP): markedly decreased Aβs; also recorded: markedly inhibited
α-CTF by WB ([4]; listed as TAT-APPsweBBP): increased α-CTF; also recorded: promoting α-CTF
RAWM entry-arm errors (learning and memory) [5]: significantly fewer errors, compared to TAT- and PBS-treated mice; also recorded: enhanced cognitive ability, as evidenced by fewer errors
RAWM entry-arm errors [6]: no difference among the various treatment groups; also recorded: no significant difference between WT treatment groups
